Source: patent EP1232756A1, “DRUGS, DRINKS OR FOODS” (Takara Shuzo Co, Ltd., priority 1999, dated 2001)

Assays:
[1] = system: female SD rat; assay: Anti-estrogenic activity of solution of EGCG in ethanol against 4-nonylphenol, rat uterine weight (Example 3); type: in vivo; details: NP 50 mg/kg oral alone
Description: A 16-days old female SD rat (Japan SLC) was purchased together with its mother, weaned at 19 days of age, and subjected to experiments from the next day.
4-Nonylphenol (hereinafter referred to as NP) was weighed such that it would be administered at 50 mg/kg and diluted by adding peanut oil thereto. The resulting mixture was orally administered for three successive days. The uterine removed on the day after the third administration day was weighed. EGCG was dissolved by adding ethanol and water was then added thereto to adjust the final ethanol concentration to 10%. The solution was orally administered 90 minutes before the administration of NP.

[2] = system: female SD rat; assay: Anti-estrogenic activity of n-octyl gallate against NP, rat uterine weight (Example 10); type: in vivo; details: NP 50 mg/kg oral + vehicle
Description: (§1) A 16-days old female SD rat (Japan SLC) was purchased together with its mother, weaned at 19 days of age, and subjected to experiments from the next day. n-Octyl gallate (Tokyo Kasei Kogyo) was dissolved in a small volume of ethanol. Peanut oil was added thereto to result in a final ethanol concentration of 5%. The resulting mixture was orally administered to the 20-days old female SD rat for three successive days. The uterine removed on the day after the last administration day was weighed. Peanut oil containing 5% ethanol was used for a vehicle administration group. NP weighed such that it would be administered at 50 mg/kg was diluted by adding peanut oil. It was orally administered 1.5 hours after the administration of n-octyl gallate.

[3] = system: female SD rat; assay: Anti-estrogenic activity of n-octyl gallate or n-cetyl gallate against subcutaneously administered BisA, rat uterine weight (Example 11); type: in vivo; details: for Ratio: vs control (100%)
Description: A 17-days old female SD rat (Japan SLC) was purchased together with its mother, weaned at 20 days of age, and subjected to experiments from the next day. n-Octyl gallate or n-cetyl gallate (both from Tokyo Kasei Kogyo) was dissolved in a small volume of ethanol. Peanut oil was added thereto to result in a final ethanol concentration of 5%. The resulting mixture was orally administered to the 21-days old female SD rat for three successive days. The uterine removed on the day after the last administration day was weighed. Peanut oil containing 5% ethanol was used for a vehicle administration group. BisA was dissolved in a small volume of ethanol. Peanut oil was added thereto to result in a final ethanol concentration of 5%. The mixture was subcutaneously administered.

[4] = molecular target: T1, ER(α) (estrogen receptor α) (Homo sapiens, UniProt P03372); assay: Binding to estrogen receptor, fluorescence polarization competition (FP Screen-for-Competitors kit, ER-α) (Example 7); details: concentration inhibiting 50% of the binding of the ES1-ER(α) complex by competing with ES1; 1 hour at room temperature
T1 construct: purchased PanVera V2577
T1 sequence (P03372 1-595): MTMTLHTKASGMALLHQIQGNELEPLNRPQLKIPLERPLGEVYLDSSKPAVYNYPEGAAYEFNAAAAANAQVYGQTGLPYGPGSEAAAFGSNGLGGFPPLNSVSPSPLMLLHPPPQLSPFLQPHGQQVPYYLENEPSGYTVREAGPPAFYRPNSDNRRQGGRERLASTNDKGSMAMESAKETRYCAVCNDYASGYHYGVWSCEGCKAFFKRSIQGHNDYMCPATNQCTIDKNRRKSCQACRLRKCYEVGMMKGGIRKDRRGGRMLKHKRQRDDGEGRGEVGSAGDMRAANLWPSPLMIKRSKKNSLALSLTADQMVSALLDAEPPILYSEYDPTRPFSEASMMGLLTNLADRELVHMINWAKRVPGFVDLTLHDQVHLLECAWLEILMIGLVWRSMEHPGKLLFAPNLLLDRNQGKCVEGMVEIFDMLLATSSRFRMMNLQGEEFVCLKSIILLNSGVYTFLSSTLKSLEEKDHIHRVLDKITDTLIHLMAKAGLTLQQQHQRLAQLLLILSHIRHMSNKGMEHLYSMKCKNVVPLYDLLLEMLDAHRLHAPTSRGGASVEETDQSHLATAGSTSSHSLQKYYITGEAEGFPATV
Description: Bindings of various gallic acid derivatives to estrogen receptor were tested using FP Screen-for-Competitors kit, ER-α, high sensitivity kit (V2577: PanVera). The tests were carried out basically according to the procedure as described in the manual attached to the kit. One of various gallic acid derivatives (n-octyl gallate (gallic acid n-octyl ester), n-dodecyl gallate (gallic acid n-dodecyl ester) and n-cetyl gallate (gallic acid n-hexadecyl ester)) was dissolved in DMSO and serially diluted to prepare diluted samples (0.5 M - 0.0000000005 M). 49 µL of Screening buffer attached to the kit was added to 1 µL of one of the diluted samples and stirred thoroughly. 50 µL of 10 nM-15 nM:ES1-ER(α) complex (a complex of ES1 (a fluorescent ligand that binds to ER) and ER(α) (estrogen receptor α)) attached to the kit was added thereto, resulting in the total volume of 100 µL. After allowing to stand for 1 hour at room temperature, fluorescence polarization was measured at an excitation wavelength of 360 nm and an emission wavelength of 535 nm using Full-Range BEACON 2000 (PanVera).

[5] = system: human breast cancer-derived MCF-7 cells; assay: E-SCREEN assay, proliferation of cultured cells, MTT method (Example 8); type: cell-based; details: BisA alone
Description: A test for proliferation of cultured cells was carried out according to a method called the E-SCREEN assay as described in Ana M. Soto et al. (Environ. Health Perspect. 103:113-122(1995)). Briefly, 4.0 x 10^3 of human breast cancer-derived MCF-7 cells in a volume of 100 µL were seeded into each well of a 96-well plate. The plate was incubated overnight. BisA or a combination of BisA and n-octyl gallate was then added thereto. A well without the addition was used as a control. The cells were further cultured for 4 days in a medium, Dulbecco's modified Eagle medium without Phenol Red supplemented with 5% FCS treated with activated carbon-dextran. The MTT method was used to measured the cell numbers.

[6] = system: female SD rat; assay: Anti-estrogenic activity of solution of EGCG in ethanol against bisphenol-A, rat uterine weight (Example 2); type: in vivo; details: for Uterine weight: mean ± standard error; for Ratio: vs control (100%)
Description: A 17-days old female SD rat (purchased from Japan SLC) was received together with its mother, weaned at 20 days of age, and subjected to experiments from the next day. BisA was weighed such that it would be administered at 200 or 40 mg/kg and dissolved in a small volume of ethanol. Peanut oil was added thereto to result in a final ethanol concentration of 5%. The resulting mixture was orally administered for three successive days. The uterine removed on the next day was weighed. EGCG was dissolved by adding ethanol and water was then added thereto to adjust the final ethanol concentration to 10%. The solution was orally administered on the day before the administration of BisA and 30 minutes before each of the successive administrations of BisA.

[7] = system: female SD rat; assay: Antagonistic (anti-estrogenic) activity of EGCG against bisphenol-A, immature rat uterine weight (Example 1(3)); type: in vivo; details: BisA 800 mg/kg oral alone
Description: (§2) A 17-days old female SD rat (purchased from Japan SLC) was received together with its mother, weaned at 20 days of age, and subjected to experiments from the next day. Five ml per kg body weight of EGCG (Sigma) or bisphenol-A (hereinafter referred to as BisA, Tokyo Kasei Kogyo) suspended in peanut oil (Nacalai Tesque) was administered orally and forcibly. Peanut oil was administered to a control rat in a similar manner. Administration was carried out once a day for three successive days. The uterine removed 24 hours after the last administration was weighed. BisA (800 mg/kg) and EGCG (800 mg/kg) were administered at the same time.

[8] = system: female SD rat; assay: Anti-estrogenic activity of solution of EGCG in ethanol, subcutaneous BisA, rat uterine weight (Example 5); type: in vivo; details: BisA 40 mg/kg subcutaneous alone
Description: (§3) A 16-days old female SD rat (Japan SLC) was purchased together with its mother, weaned at 19 days of age, and subjected to experiments from the next day. BisA was weighed such that it would be administered at 40 mg/kg and dissolved in a small volume of ethanol. Peanut oil was added thereto to result in a final ethanol concentration of 5%. The resulting mixture was subcutaneously administered for three successive days. The uterine removed on the day after the third administration day was weighed. EGCG (200 mg/kg) was dissolved by adding ethanol and water was then added thereto to adjust the final ethanol concentration to 10 or 0%. The solution was orally administered 30 minutes before the administration of BisA.

[9] = system: female SD rat; assay: Anti-estrogenic activity of n-octyl gallate against BisA, rat uterine weight (Example 9); type: in vivo; details: BisA 40 mg/kg oral + vehicle
Description: as §1, with “BisA” for “NP weighed such that it would be administered at 50 mg/kg”, “dissolved in a small volume of ethanol. Peanut oil was added thereto to result in a final ethanol concentration of 5%.” for “diluted by adding peanut oil.”

[10] = system: female SD rat; assay: Dose dependency of anti-estrogenic activity of solution of EGCG in ethanol, rat uterine weight (Example 6); type: in vivo; details: for Ratio: vs control (100%)
Description: as §3, with “subcutaneously or orally” for “subcutaneously”, “EGCG” for “EGCG (200 mg/kg)”, “10%.” for “10 or 0%.”

[11] = system: female SD rat; assay: Agonistic (estrogenic) activity: immature rat uterine weight (Example 1(2)); type: in vivo; details: substance alone
Description: as §2, with “or EGCG (80 or 800” for “(800”, “was administered. […]” for “and EGCG (800 mg/kg) were administered at the same time.”

[12] = system: female SD rat; assay: Effect of ethanol concentration on anti-estrogenic activity of EGCG, rat uterine weight (Example 4); type: in vivo; details: BisA 40 mg/kg subcutaneous alone
Description: as §3, with “10, 5, 1, 0.5” for “10”, “90” for “30”

CCCCCCCCCc1ccc(O)cc1 [NP, 4-Nonylphenol, reference compound]
Uterine weight ([1]; mean ± standard error): 44.4 ± 3.2 mg | Ratio ([1]; vs control (100%)): 144% | Uterine weight ([2]; mean ± standard error): 47.6 ± 2.3 mg | Ratio ([2]; vs control (100%)): 144%

CCCCCCCCCCCCCCCCOC(=O)c1cc(O)c(O)c(O)c1 [n-cetyl gallate, gallic acid n-hexadecyl ester]
Uterine weight ([3]; BisA 40 mg/kg subcutaneous + n-cetyl gallate 1 mg/kg oral, 3 days): 45.1 ± 2.3 mg | Uterine weight ([3]; BisA 40 mg/kg subcutaneous + n-cetyl gallate 5 mg/kg oral, 3 days): 43.1 ± 2.0 mg | Ratio ([3]; BisA 40 mg/kg subcutaneous + n-cetyl gallate 1 mg/kg oral): 109% | Ratio ([3]; BisA 40 mg/kg subcutaneous + n-cetyl gallate 5 mg/kg oral): 104% | IC50 [4]: 47.6 nM

CC(C)(c1ccc(O)cc1)c1ccc(O)cc1 [BisA, bisphenol-A, reference compound]
number of the cells proliferated relative to the control ([5]; MCF-7): 1.8 fold | Relative rate of increase in cell number ([5]; MCF-7, 4 days culture, control = 100): 180% | Uterine weight ([6]; BisA 40 mg/kg oral alone): 64.5 ± 9.2 mg | Uterine weight ([6]; BisA 200 mg/kg oral alone): 57.7 ± 5.2 mg | Ratio ([6]; BisA 40 mg/kg, oral, alone): 149% | Ratio ([6]; BisA 200 mg/kg oral alone): 133% | Uterine weight ([7]; mean ± standard error): 54.7 ± 5.5 mg | Ratio ([7]; vs control (100%)): 147% | Uterine weight ([3]; BisA 40 mg/kg subcutaneous + vehicle, mean ± standard error): 59.7 ± 2.7 mg | Ratio ([3]; BisA 40 mg/kg subcutaneous + vehicle): 145% | Uterine weight ([8]; mean ± standard error): 50.0 ± 2.7 mg | Ratio ([8]; vs control (100%)): 162% | Uterine weight ([9]; mean ± standard error): 48.9 ± 2.1 mg | Ratio ([9]; vs control (100%)): 161% | Uterine weight ([10]; BisA 40 mg/kg subcutaneous alone, mean ± standard error): 52.2 ± 2.9 mg | Ratio ([10]; BisA 40 mg/kg subcutaneous alone): 160% | Ratio ([10]; BisA 40 mg/kg, oral, alone): 140% | Uterine weight ([11]; 800 mg/kg oral in peanut oil, once a day for 3 days, mean ± standard error): 55.2 ± 2.3 mg | Ratio ([11]; uterine weight vs control group (100%), 800 mg/kg oral, 3 days): 137% | Uterine weight ([12]; mean ± standard error): 49.9 ± 2.1 mg | Ratio ([12]; vs control (100%)): 186%

CCCCCCCCCCCCOC(=O)c1cc(O)c(O)c(O)c1 [n-Dodecyl gallate, gallic acid n-dodecyl ester]
IC50 [4]: 311 nM
